Key:
Assay in all cases: NCI in vitro 60-cell drug screen (SRB assay)
Assay type in all cases: cell-based
[1] = tested on: CCRF-CEM; conditions: CCRF-CEM (Leukemia); 10^-5 molar concentration; 48 hours
[2] = tested on: HL-60(TB); conditions: HL-60(TB) (Leukemia); 10^-5 molar concentration; 48 hours
[3] = tested on: K-562; conditions: K-562 (Leukemia); 10^-5 molar concentration; 48 hours
[4] = tested on: MOLT-4; conditions: MOLT-4 (Leukemia); 10^-5 molar concentration; 48 hours
[5] = tested on: HOP-92; conditions: HOP-92 (Non-small cell lung cancer); 10^-5 molar concentration; 48 hours
[6] = tested on: NCI-H23; conditions: NCI-H23 (Non-small cell lung cancer); 10^-5 molar concentration; 48 hours
[7] = tested on: NCI-H460; conditions: NCI-H460 (Non-small cell lung cancer); 10^-5 molar concentration; 48 hours
[8] = tested on: NCI-H522; conditions: NCI-H522 (Non-small cell lung cancer); 10^-5 molar concentration; 48 hours
[9] = tested on: COLO 205; conditions: COLO 205 (Colon cancer); 10^-5 molar concentration; 48 hours
[10] = tested on: HCC-2998; conditions: HCC-2998 (Colon cancer); 10^-5 molar concentration; 48 hours
[11] = tested on: HCT-116; conditions: HCT-116 (Colon cancer); 10^-5 molar concentration; 48 hours
[12] = tested on: HCT-15; conditions: HCT-15 (Colon cancer); 10^-5 molar concentration; 48 hours
[13] = tested on: HT29; conditions: HT29 (Colon cancer); 10^-5 molar concentration; 48 hours
[14] = tested on: SF-268; conditions: SF-268 (CNS cancer); 10^-5 molar concentration; 48 hours
[15] = tested on: SNB-75; conditions: SNB-75 (CNS cancer); 10^-5 molar concentration; 48 hours
[16] = tested on: U251; conditions: U251 (CNS cancer); 10^-5 molar concentration; 48 hours
[17] = tested on: LOX IMVI; conditions: LOX IMVI (Melanoma); 10^-5 molar concentration; 48 hours
[18] = tested on: MDA-MB-435; conditions: MDA-MB-435 (Melanoma); 10^-5 molar concentration; 48 hours
[19] = tested on: SK-MEL-28; conditions: SK-MEL-28 (Melanoma); 10^-5 molar concentration; 48 hours
[20] = tested on: UACC-257; conditions: UACC-257 (Melanoma); 10^-5 molar concentration; 48 hours
[21] = tested on: UACC-62; conditions: UACC-62 (Melanoma); 10^-5 molar concentration; 48 hours
[22] = tested on: OVCAR-3; conditions: OVCAR-3 (Ovarian cancer); 10^-5 molar concentration; 48 hours
[23] = tested on: OVCAR-4; conditions: OVCAR-4 (Ovarian cancer); 10^-5 molar concentration; 48 hours
[24] = tested on: NCI/ADR-RES; conditions: NCI/ADR-RES (Ovarian cancer); 10^-5 molar concentration; 48 hours
[25] = tested on: SK-OV-3; conditions: SK-OV-3 (Ovarian cancer); 10^-5 molar concentration; 48 hours
[26] = tested on: 786-0; conditions: 786-0 (Renal cancer); 10^-5 molar concentration; 48 hours
[27] = tested on: A498; conditions: A498 (Renal cancer); 10^-5 molar concentration; 48 hours
[28] = tested on: CAKI-1; conditions: CAKI-1 (Renal cancer); 10^-5 molar concentration; 48 hours
[29] = tested on: RXF 393; conditions: RXF 393 (Renal cancer); 10^-5 molar concentration; 48 hours
[30] = tested on: TK-10; conditions: TK-10 (Renal cancer); 10^-5 molar concentration; 48 hours
[31] = tested on: UO-31; conditions: UO-31 (Renal cancer); 10^-5 molar concentration; 48 hours
[32] = tested on: PC-3; conditions: PC-3 (Prostate cancer); 10^-5 molar concentration; 48 hours
[33] = tested on: MCF7; conditions: MCF7 (Breast cancer); 10^-5 molar concentration; 48 hours
[34] = tested on: MDA-MB-231/ATCC; conditions: MDA-MB-231/ATCC (Breast cancer); 10^-5 molar concentration; 48 hours
[35] = tested on: HS 578T; conditions: HS 578T (Breast cancer); 10^-5 molar concentration; 48 hours
[36] = tested on: T-47D; conditions: T-47D (Breast cancer); 10^-5 molar concentration; 48 hours
[37] = tested on: MDA-MB-486; conditions: MDA-MB-486 (Breast cancer); 10^-5 molar concentration; 48 hours

`CN1CCN(c2nc3ccccc3c3c(=O)c4cc(Cl)ccc4sc23)CC1` [Compound 8, 10-Chloro-6-(4-methylpiperazin-1-yl)-12H-thiochromeno[2,3-c]q uinolin-12-one] gave a Growth percent [1] of 91.60%, a Growth percent [2] of 96.19% and a Growth percent [3] of 72.98%. It also gave a Growth percent [4] of 87.97%, a Growth percent [5] of 17.97% and a Growth percent [6] of 81.11%. For the same compound, the Growth percent [7] was 96.05%, the Growth percent [8] was 98.78% and the Growth percent [9] was 90.06%. The Growth percent [10] was 96.87%, the Growth percent [11] was 80.94% and the Growth percent [12] was 93.94%. The Growth percent [13] was 78.65%, the Growth percent [14] was 82.98% and the Growth percent [15] was 42.15%. The Growth percent [16] was 92.52%, the Growth percent [17] was 87.47% and the Growth percent [18] was 105.80%. For the same compound, the Growth percent [19] was 107.92%, the Growth percent [20] was 100.55% and the Growth percent [21] was 99.27%. The Growth percent [22] was 89.13%, the Growth percent [23] was 94.93% and the Growth percent [24] was 81.35%. The Growth percent [25] was 75.11%, the Growth percent [26] was 90.48% and the Growth percent [27] was 79.33%. For the same compound, the Growth percent [28] was 87.50%, the Growth percent [29] was 88.57% and the Growth percent [30] was 97.07%. The Growth percent [31] was 48.97%, the Growth percent [32] was 84.81% and the Growth percent [33] was 76.60%. It also gave a Growth percent [34] of 57.30%, a Growth percent [35] of 65.57% and a Growth percent [36] of 82.24%. For the same compound, the Growth percent [37] was 102.02%.
Compound `O=c1c2cc(Cl)ccc2sc2c(N3CCOCC3)nc3ccccc3c12` [Compound 13, 10-Chloro-6-morpholino-12H-thiochromeno[2,3-c]quinolin-12-one] has a Growth percent [1] of 88.02%, a Growth percent [2] of 93.38% and a Growth percent [3] of 81.18%. It also gave a Growth percent [4] of 89.31%, a Growth percent [5] of 60.43% and a Growth percent [6] of 95.21%. The Growth percent [7] was 99.28%, the Growth percent [8] was 89.60% and the Growth percent [9] was 99.24%. The Growth percent [10] was 108.75%, the Growth percent [11] was 85.71% and the Growth percent [12] was 93.81%. For the same compound, the Growth percent [13] was 83.73%, the Growth percent [14] was 103.56% and the Growth percent [15] was 76.88%. For the same compound, the Growth percent [16] was 98.58%, the Growth percent [17] was 89.82% and the Growth percent [18] was 102.07%. It also gave a Growth percent [19] of 111.28%, a Growth percent [20] of 110.91% and a Growth percent [21] of 87.86%. For the same compound, the Growth percent [22] was 96.54%, the Growth percent [23] was 96.75% and the Growth percent [24] was 98.16%. For the same compound, the Growth percent [25] was 77.18%, the Growth percent [26] was 99.31% and the Growth percent [27] was 94.15%. The Growth percent [28] was 90.00%, the Growth percent [29] was 108.61% and the Growth percent [30] was 86.24%. For the same compound, the Growth percent [31] was 73.11%, the Growth percent [32] was 79.80% and the Growth percent [33] was 50.59%. For the same compound, the Growth percent [34] was 71.53%, the Growth percent [35] was 83.27% and the Growth percent [36] was 80.00%. The Growth percent [37] was 39.67%.

Source: patent EP3002287B1, “Thiochromeno[2,3-c]quinolin-12-one derivatives and their use as topoisomerase inhibitors” (National Defense Medical Center, priority 2014, dated 2016)
